Measurements reported in patent US9056858B2, “Indazole and pyrazolopyridine compounds as CCR1 receptor antagonists” (Boehringer Ingelheim International GmbH, priority 2009, dated 2015).

Biological target: T1, CCR1 (Homo sapiens, UniProt P32246)
T1 construct: host or cells: Non-adherent cells
T1 sequence (P32246 1-355): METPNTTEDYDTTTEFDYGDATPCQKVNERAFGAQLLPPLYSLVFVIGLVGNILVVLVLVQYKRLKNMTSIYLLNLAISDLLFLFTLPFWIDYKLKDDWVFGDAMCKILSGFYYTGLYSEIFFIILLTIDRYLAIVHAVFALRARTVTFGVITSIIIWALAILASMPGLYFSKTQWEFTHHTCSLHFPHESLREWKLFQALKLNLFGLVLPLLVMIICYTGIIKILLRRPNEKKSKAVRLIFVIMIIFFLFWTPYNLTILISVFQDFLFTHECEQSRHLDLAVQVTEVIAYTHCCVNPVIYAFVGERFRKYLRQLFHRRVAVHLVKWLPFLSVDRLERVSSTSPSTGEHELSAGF
Experiment: functional cellular assay measuring calcium flux in CCR1 transfected cells (block of CCR1/MIP-1α interaction)
Type: cell-based
Conditions: cells stably expressing recombinant CCR1 and G-alpha-16, MIP-1alpha added at EC80
Procedure: Compounds are assessed for the ability to block the interaction of CCR1 and MIP-1α in a functional cellular assay measuring calcium flux in CCR1 transfected cells.
Non-adherent cells purchased from Chemicon Corporation (HTS005C), stably expressing recombinant CCR1 and G-alpha-16 are grown in RPMI 1640 medium (Mediatech 10-080-CM) supplemented with 10% FBS, 0.4 mg/mL Geneticin and penicillin/streptomycin. On the day of the assay, the cells are loaded with Calcium 4 dye (Molecular Devices R7448) with Probenecid (Invitrogen P346400) at 8E5 cells/mL for 1 hour at room temperature. After 1 hour, they are seeded in a 384-well tissue culture-treated plate at a density of 20,000 cells/well. Appropriately diluted test compound is added to the well to achieve a top concentration of 3,000 nM (diluted 4-fold with 10 doses total). The final concentration of DMSO is 1%. The buffer is HBSS (Invitrogen 14025) with 20 mM HEPES at pH 7.4. The cells incubate 30 minutes at 37 C and then 30 minutes at room temperature. The plates are transferred to the […] FDSS6000 where MIP-1alpha in 1% BSA is added at the EC80 final concentration. All plates must be read within 4 hours of the start of dye-loading. Wells +/− MIP-1alpha containing diluted DMSO instead of compound serve as the controls. Data are analyzed using Activity Base software.

Row | IC50 | Compound
1 | 20 nM | CC(=O)N(C)c1ccc(C2(NC(=O)c3cncc4c3cnn4-c3ccc(F)cc3)CC2)cn1 [1-(4-Fluoro-phenyl)-1H-pyrazolo[3,4-c]pyridine-4-carboxylic acid {1-[6-(acetyl-methyl-amino)-pyridin-3-yl]-cyclopropyl}-amide]
2 | 5 nM | COC(=O)CNC(=O)c1cccc(C2(NC(=O)c3cncc4c3cnn4-c3ccc(F)cc3)CC2)c1 [[3-(1-{[1-(4-Fluoro-phenyl)-1H-pyrazolo[3,4-c]pyridine-4-carbonyl]-amino}-cyclopropyl)-benzoylamino]-acetic acid methyl ester]
3 | 45 nM | O=C(NC1(c2ncc(Br)cn2)CC1)c1cncc2c1cnn2-c1ccc(F)cc1 [1-(4-Fluoro-phenyl)-1H-pyrazolo[3,4-c]pyridine-4-carboxylic acid [1-(5-bromo-pyrimidin-2-yl)-cyclopropyl]-amide]
4 | 78 nM | CNC(=O)CNC(=O)c1cccc(C2(NC(=O)c3cncc4c3cnn4-c3ccc(F)cc3)CC2)c1 [1-(4-Fluoro-phenyl)-1H-pyrazolo[3,4-c]pyridine-4-carboxylic acid {1-[3-(methylcarbamoylmethyl-carbamoyl)-phenyl]-cyclopropyl}-amide]
5 | 98 nM | COC(=O)C1(NC(=O)c2cccc(C3(NC(=O)c4cncc5c4cnn5-c4ccc(F)cc4)CC3)c2)CC1 [1-[3-(1-{[1-(4-Fluoro-phenyl)-1H-pyrazolo[3,4-c]pyridine-4-carbonyl]-amino}-cyclopropyl)-benzoylamino]-cyclopropanecarboxylic acid methyl ester]
6 | 5 nM | NS(=O)(=O)c1ccc(C2(NC(=O)c3cncc4c3cnn4-c3ccc(F)cc3)CC2)cn1 [1-(4-Fluoro-phenyl)-1H-pyrazolo[3,4-c]pyridine-4-carboxylic acid [1-(6-sulfamoyl-pyridin-3-yl)-cyclopropyl]-amide]
7 | 62 nM | O=C(NC1(c2ccc(F)cc2)CCC1)c1cncc2c1cnn2-c1ccc(F)cc1 [1-(4-Fluoro-phenyl)-1H-pyrazolo[3,4-c]pyridine-4-carboxylic acid [1-(4-fluoro-phenyl)-cyclobutyl]-amide]
8 | 11 nM | O=C(NC1(c2nc(C3CC3)no2)CC1)c1cncc2c1cnn2-c1ccc(F)cc1 [1-(4-Fluoro-phenyl)-1H-pyrazolo[3,4-c]pyridine-4-carboxylic acid [1-(3-cyclopropyl-1,2,4-oxadiazol-5-yl)-cyclopropyl]-amide]
9 | 40 nM | NC(=O)c1cccc(C2(NC(=O)c3cncc4c3cnn4-c3ccc(F)cc3)CC2)c1 [1-(4-Fluoro-phenyl)-1H-pyrazolo[3,4-c]pyridine-4-carboxylic acid [1-(3-carbamoyl-phenyl)-cyclopropyl]-amide]
10 | 69 nM | O=C(O)c1ccc(C2(NC(=O)c3cncc4c3cnn4-c3ccc(F)cc3)CC2)cc1 [4-(1-{[1-(4-Fluoro-phenyl)-1H-pyrazolo[3,4-c]pyridine-4-carbonyl]-amino}-cyclopropyl)-benzoic acid]
11 | 1 nM | O=C(NC1(c2cccc(Br)c2)CC1)c1cncc2c1cnn2-c1ccc(F)cc1 [1-(4-Fluoro-phenyl)-1H-pyrazolo[3,4-c]pyridine-4-carboxylic acid [1-(3-bromo-phenyl)-cyclopropyl]-amide]
12 | 0.5 nM | O=C(NC1(c2ccnc(Br)c2)CC1)c1cncc2c1cnn2-c1ccc(F)cc1 [1-(4-Fluoro-phenyl)-1H-pyrazolo[3,4-c]pyridine-4-carboxylic acid [1-(2-bromo-pyridin-4-yl)-cyclopropyl]-amide]
13 | 13 nM | CS(=O)(=O)c1cc(C2(NC(=O)c3cc(I)cc4c3cnn4-c3ccc(F)cc3)CC2)ccn1 [1-(4-Fluoro-phenyl)-6-iodo-1H-indazole-4-carboxylic acid [1-(2-methanesulfonyl-pyridin-4-yl)-cyclopropyl]-amide]
14 | 35 nM | N#CCNC(=O)c1cccc(C2(NC(=O)c3cncc4c3cnn4-c3ccc(F)cc3)CC2)c1 [1-(4-Fluoro-phenyl)-1H-pyrazolo[3,4-c]pyridine-4-carboxylic acid {1-[3-(cyanomethyl-carbamoyl)-phenyl]-cyclopropyl}-amide]
15 | 7 nM | CS(=O)(=O)c1cc(C(=O)NC2(c3ccnc(S(C)(=O)=O)c3)CC2)c2cnn(-c3ccc(F)cc3)c2c1 [1-(4-Fluoro-phenyl)-6-methanesulfonyl-1H-indazole-4-carboxylic acid [1-(2-methanesulfonyl-pyridin-4-yl)-cyclopropyl]-amide]
16 | 14 nM | CS(=O)(=O)c1cnc(C2(NC(=O)c3cncc4c3cnn4-c3ccc(F)cc3)CC2)nc1 [1-(4-Fluoro-phenyl)-1H-pyrazolo[3,4-c]pyridine-4-carboxylic acid [1-(5-methanesulfonyl-pyrimidin-2-yl)-cyclopropyl]-amide]
17 | 4 nM | O=C(NC1(c2ccc(Br)cc2)CC1)c1cncc2c1cnn2-c1ccc(F)cc1 [1-(4-Fluoro-phenyl)-1H-pyrazolo[3,4-c]pyridine-4-carboxylic acid [1-(4-bromo-phenyl)-cyclopropyl]-amide]
18 | 10 nM | O=C(NC1(c2ccc(Cl)cc2)CC1)c1cncc2c1cnn2-c1ccc(F)cc1 [1-(4-Fluoro-phenyl)-1H-pyrazolo[3,4-c]pyridine-4-carboxylic acid [1-(4-chloro-phenyl)-cyclopropyl]-amide]
19 | 80 nM | COC(=O)[C@H](C)NC(=O)c1cccc(C2(NC(=O)c3cncc4c3cnn4-c3ccc(F)cc3)CC2)c1 [(S)-2-[3-(1-{[1-(4-Fluoro-phenyl)-1H-pyrazolo[3,4-c]pyridine-4-carbonyl]-amino}-cyclopropyl)-benzoylamino]-propionic acid methyl ester]
20 | 75 nM | O=C(NC1(c2ccc(F)cc2)CC1)c1cncc2c1cnn2-c1ccc(F)cc1 [1-(4-Fluoro-phenyl)-1H-pyrazolo[3,4-c]pyridine-4-carboxylic acid [1-(4-fluoro-phenyl)-cyclopropyl]-amide]
21 | 74 nM | NC(=O)CNC(=O)c1cccc(C2(NC(=O)c3cncc4c3cnn4-c3ccc(F)cc3)CC2)c1 [1-(4-Fluoro-phenyl)-1H-pyrazolo[3,4-c]pyridine-4-carboxylic acid {1-[3-(carbamoylmethyl-carbamoyl)-phenyl]-cyclopropyl}-amide]
22 | 265 nM | O=C(NC1(c2nncs2)CC1)c1cncc2c1cnn2-c1ccc(F)cc1 [1-(4-Fluoro-phenyl)-1H-pyrazolo[3,4-c]pyridine-4-carboxylic acid (1-1,3,4-thiadiazol-2-yl-cyclopropyl)-amide]
23 | 7 nM | CS(=O)(=O)c1ccc(C2(NC(=O)c3cncc4c3cnn4-c3ccc(F)cc3)CC2)cn1 [1-(4-Fluoro-phenyl)-1H-pyrazolo[3,4-c]pyridine-4-carboxylic acid [1-(6-methanesulfonyl-pyridin-3-yl)-cyclopropyl]-amide]
24 | 9 nM | O=C(NC1(c2ccc(Br)cn2)CC1)c1cncc2c1cnn2-c1ccc(F)cc1 [1-(4-Fluoro-phenyl)-1H-pyrazolo[3,4-c]pyridine-4-carboxylic acid [1-(5-bromo-pyridin-2-yl)-cyclopropyl]-amide]
25 | 28 nM | CNc1ccc(C2(NC(=O)c3cncc4c3cnn4-c3ccc(F)cc3)CC2)cn1 [1-(4-Fluoro-phenyl)-1H-pyrazolo[3,4-c]pyridine-4-carboxylic acid [1-(6-methylamino-pyridin-3-yl)-cyclopropyl]-amide]
